Measured values: patent publication US20160355530A1, “HEPATITIS C INHIBITORS AND USES THEREOF” (AbbVie Inc., priority 2010, published 2016)
Like-named read-outs stand apart in the source and are kept apart here.

Tests used:
[1] = test system: chimeric replicon with genotype 2b NS5B; test: microbe, parasite or virus in culture; type: cell-based, HCV genotype 2b; conditions: Hepatitis C virus, read-out: 2b chimera 5% FBS EC50
[2] = test system: chimeric replicon with 2a-J6CF-derived NS5B; test: microbe, parasite or virus in culture; type: cell-based, HCV genotype 2a; conditions: Hepatitis C virus, read-out: 2a chimera 5% FBS EC50
[3] = target: T1, HCV NS5B polymerase 1a-H77-C316Y (Hepatitis C virus genotype 1a, UniProt P27958, C2736Y); test: biochemical; set-up: species or system HCV genotype 1a
T1 construct: six-histidine tag; made in house; host or cells: E. coli
Method in brief: (§1)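 Recombinant NS5B (residues 1–570, His-tagged, E. coli-expressed) copied 5 nM of a 2.1 kb HCV 1b negative-strand 3′-end RNA template with 20 μM CTP, 20 μM ATP and 0.284 μM [3H]UTP for 3 h at 30 °C. Spermine-precipitated RNA was filter-captured and counted, and IC50 was fitted by nonlinear regression.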

[4] = test system: HCV NS5B polymerase 1a-H77-C316Y; test: biochemical; set-up: species or system HCV genotype 1a; conditions: ratio of enzyme IC50s, 1a H77-C316Y / 1a H77
Method in brief: as §1

[5] = target: T2, HCV NS5B polymerase 1a-H77 (Hepatitis C virus genotype 1a, UniProt P27958); test: biochemical; set-up: species or system HCV genotype 1a; conditions: enzyme, strain 1a H77; read-out: HCV Polymerase Strain 1a H77 IC50
T2 construct: six-histidine tag; made in house; host or cells: E. coli
Method in brief: as §1

[6] = test system: chimeric replicon with genotype 4a NS5B; test: microbe, parasite or virus in culture; type: cell-based, HCV genotype 4a; conditions: Hepatitis C virus, read-out: 4a chimera 5% FBS EC50
[7] = test system: chimeric replicon with genotype 3a NS5B; test: microbe, parasite or virus in culture; type: cell-based, HCV genotype 3a; conditions: Hepatitis C virus, read-out: 3a chimera 5% FBS EC50
[8] = test system: HCV 1b-BB7 subgenomic replicon; test: microbe, parasite or virus in culture; type: cell-based, HCV genotype 1b; conditions: Hepatitis C virus, stable replicon
[9] = test system: HCV 1a-H77 subgenomic replicon; test: microbe, parasite or virus in culture; type: cell-based, HCV genotype 1a; conditions: Hepatitis C virus, stable replicon
[10] = test system: HCV 1a-H77-C316Y transient subgenomic replicon in Huh-7 derived cell line; test: microbe, parasite or virus in culture; type: cell-based, HCV genotype 1a; conditions: for EC50: Hepatitis C virus, Huh-7, read-out: Transient Replicon 1a H77-C316Y 5% FBS EC50; for Transient Replicon Fold Resistance C316Y/1a: ratio of transient replicon EC50s, C316Y / 1a H77
Method in brief: (§2)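 Transient format: T7-transcribed replicon RNA lacking Neo, electroporated into Huh-7-derived cells (5×10^3/well), input RNA checked by luciferase at 4 h. Three-fold compound dilution series, 0.5% DMSO, 4 days at 37° C; EC50 from luciferase signal in lysed cells.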

[11] = test system: HCV 1a-H77 transient subgenomic replicon in Huh-7 derived cell line; test: microbe, parasite or virus in culture; type: cell-based, HCV genotype 1a; conditions: Hepatitis C virus, Huh-7; transient replicon, 5% FBS; read-out: Transient Replicon 1a H77 5% FBS EC50
Method in brief: as §2

[12] = target: T3, HCV NS5B polymerase 1b BK strain (Hepatitis C virus genotype 1b, UniProt P26663); test: HCV NS5B polymerase enzymatic inhibition assay, strain 1b BK; type: biochemical; conditions: enzyme, strain 1b BK; read-out: HCV Polymerase Strain 1b BK IC50
T3 construct: six-histidine tag; made in house; host or cells: E. coli
Method in brief: as §1

[13] = strain 1b BB7, 5% FBS + 40% human plasma, read-out: 1b BB7 5% FBS + 40% Human Plasma EC50
[14] = strain 1b BB7, 5% FBS, no human plasma, read-out: 1b BB7 5% FBS EC50
[15] = strain 1b BB7, 5% FBS, read-out: 1b BB7 5% FBS EC50
[16] = 5% FBS, absence of human plasma, read-out: Stable Replicon 1a H77 5% FBS EC50
[17] = strain 1a H77, 5% FBS + 40% human plasma, read-out: 1a H77 5% FBS + 40% Human Plasma EC50
[18] = strain 1a H77, 5% FBS, no human plasma, read-out: 1a H77 5% FBS EC50
[19] = strain 1a H77, 5% FBS, read-out: 1a H77 5% FBS EC50

T1 sequence (P27958 2421-2990 C2736Y): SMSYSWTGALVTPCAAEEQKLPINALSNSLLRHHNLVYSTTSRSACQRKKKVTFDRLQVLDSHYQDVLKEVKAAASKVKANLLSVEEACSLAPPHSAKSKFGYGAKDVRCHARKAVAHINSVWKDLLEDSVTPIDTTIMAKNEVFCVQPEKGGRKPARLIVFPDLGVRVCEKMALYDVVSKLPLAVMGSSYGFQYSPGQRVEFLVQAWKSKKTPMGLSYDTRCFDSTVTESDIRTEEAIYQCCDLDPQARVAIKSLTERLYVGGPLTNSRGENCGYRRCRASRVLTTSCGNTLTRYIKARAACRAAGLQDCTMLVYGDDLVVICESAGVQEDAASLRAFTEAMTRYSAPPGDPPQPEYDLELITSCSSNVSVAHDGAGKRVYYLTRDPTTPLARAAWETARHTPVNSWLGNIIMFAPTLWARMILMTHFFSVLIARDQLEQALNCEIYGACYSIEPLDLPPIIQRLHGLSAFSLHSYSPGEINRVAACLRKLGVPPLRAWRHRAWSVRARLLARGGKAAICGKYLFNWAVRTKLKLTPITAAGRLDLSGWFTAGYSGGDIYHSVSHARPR
T2 sequence (P27958 2421-2990): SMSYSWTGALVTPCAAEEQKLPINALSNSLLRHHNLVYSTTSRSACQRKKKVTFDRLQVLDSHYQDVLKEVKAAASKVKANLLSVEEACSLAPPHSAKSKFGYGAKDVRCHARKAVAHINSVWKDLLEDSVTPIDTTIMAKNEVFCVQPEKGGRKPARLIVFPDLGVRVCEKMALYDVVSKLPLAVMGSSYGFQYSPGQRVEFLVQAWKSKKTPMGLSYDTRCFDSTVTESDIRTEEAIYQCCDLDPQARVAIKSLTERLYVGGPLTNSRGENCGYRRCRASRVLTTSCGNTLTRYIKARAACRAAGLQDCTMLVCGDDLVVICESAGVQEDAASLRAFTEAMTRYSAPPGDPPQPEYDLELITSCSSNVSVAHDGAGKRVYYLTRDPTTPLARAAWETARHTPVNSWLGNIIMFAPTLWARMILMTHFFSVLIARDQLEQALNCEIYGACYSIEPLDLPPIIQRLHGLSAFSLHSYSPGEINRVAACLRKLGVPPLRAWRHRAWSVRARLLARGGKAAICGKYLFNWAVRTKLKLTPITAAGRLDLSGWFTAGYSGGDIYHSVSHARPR
T3 sequence (P26663 2420-2989): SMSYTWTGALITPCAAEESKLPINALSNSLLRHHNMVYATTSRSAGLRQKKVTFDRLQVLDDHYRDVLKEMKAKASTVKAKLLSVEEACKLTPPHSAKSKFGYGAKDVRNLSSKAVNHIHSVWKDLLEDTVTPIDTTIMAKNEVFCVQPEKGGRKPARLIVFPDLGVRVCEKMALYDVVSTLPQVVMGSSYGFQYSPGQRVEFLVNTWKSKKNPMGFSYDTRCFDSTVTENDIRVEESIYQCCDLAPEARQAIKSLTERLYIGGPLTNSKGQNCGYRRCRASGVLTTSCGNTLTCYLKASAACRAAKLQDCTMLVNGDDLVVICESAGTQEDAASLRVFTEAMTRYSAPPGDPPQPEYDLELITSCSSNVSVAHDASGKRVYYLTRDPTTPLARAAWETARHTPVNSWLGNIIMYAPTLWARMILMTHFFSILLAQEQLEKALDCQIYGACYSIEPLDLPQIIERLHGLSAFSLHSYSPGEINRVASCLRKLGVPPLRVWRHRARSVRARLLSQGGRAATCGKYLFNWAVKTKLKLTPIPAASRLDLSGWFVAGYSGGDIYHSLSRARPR

Row | SMILES | EC50 [1] | EC50 [2] | IC50 [3] | C316Y/1a Fold Resistance [4] | IC50 [5] | EC50 [6] | EC50 [7] | EC50 [8, 13] | EC50 [8, 14] | EC50 [8, 15] | EC50 [9, 16] | EC50 [9, 17] | EC50 [9, 18] | EC50 [9, 19] | EC50 [10] | Transient Replicon Fold Resistance C316Y/1a [10] | EC50 [11] | IC50 [12]
1 | CC(C)(O)C(O)CCN(c1cc2oc(-c3ccc(F)cc3)c(-c3ncc[nH]3)c2cc1C1CC1)S(C)(=O)=O (stereo not drawn) [Example 84, N-[5-cyclopropyl-2-(4-fluorophenyl)-3-(1H-imidazol-2-yl)-1-benzofuran-6-yl]-N-(3,4-dihydroxy-4-methylpentyl)methanesulfonamide] | 30.9 nM | 103 nM | 41 nM | 12 fold | 3.5 nM | 142 nM | 15.1 nM | 146 nM | 14.1 nM | 14.1 nM | 14.9 nM | 218 nM | 14.9 nM | 14.9 nM | 184 nM | 7 fold | 25.4 nM | 19 nM
2 | CNS(=O)(=O)CCCN(c1cc2oc(-c3ccc(F)cc3)c(-c3ncc[nH]3)c2cc1C1CC1)S(C)(=O)=O [Example 86, 3-{[5-cyclopropyl-2-(4-fluorophenyl)-3-(1H-imidazol-2-yl)-1-benzofuran-6-yl](methylsulfonyl)amino}-N-methylpropane-1-sulfonamide] | 137 nM | 64.2 nM | 56 nM | 11 fold | 5 nM | 108 nM | 11.5 nM | 41 nM | 6.7 nM | 6.7 nM | 12.3 nM | 86 nM | 12.3 nM | 12.3 nM | 92.1 nM | 33 fold | 2.8 nM | 18 nM
3 | CS(=O)(=O)CCN(c1cc2oc(-c3ccc(F)cc3)c(-c3ncc[nH]3)c2cc1C1CC1)S(C)(=O)=O [Example 87, N-[5-cyclopropyl-2-(4-fluorophenyl)-3-(1H-imidazol-2-yl)-1-benzofuran-6-yl]-N-[2-(methylsulfonyl)ethyl]methanesulfonamide] | 84.9 nM | 64.5 nM | 156 nM | 26 fold | 6 nM | 48.4 nM | 3.2 nM | 57 nM | 4.9 nM | 4.9 nM | 7.6 nM | 65 nM | 7.6 nM | 7.6 nM | 155 nM | 25 fold | 6.1 nM | 23 nM
4 | CS(=O)(=O)N(CCCCCO)c1cc2oc(-c3ccc(F)cc3)c(-c3ncc[nH]3)c2cc1C1CC1 [Example 88, N-[5-cyclopropyl-2-(4-fluorophenyl)-3-(1H-imidazol-2-yl)-1-benzofuran-6-yl]-N-(5-hydroxypentyl)methanesulfonamide] | 24.5 nM | 25.3 nM | 46 nM | 12 fold | 4 nM | 33.9 nM | 3.2 nM | 108 nM | 4.9 nM | 4.9 nM | 4.1 nM | 119 nM | 4.1 nM | 4.1 nM | 38.2 nM | 32 fold | 1.2 nM | 9 nM
5 | CS(=O)(=O)N(CCCS(=O)(=O)c1ccccc1)c1cc2oc(-c3ccc(F)cc3)c(-c3ncc[nH]3)c2cc1C1CC1 [Example 90, N-[5-cyclopropyl-2-(4-fluorophenyl)-3-(1H-imidazol-2-yl)-1-benzofuran-6-yl]-N-[3-(phenylsulfonyl)propyl]methanesulfonamide] | 68 nM | 47.5 nM | 42 nM | 12 fold | 3.5 nM | 27.5 nM | 12.8 nM | 48 nM | 6 nM | 6 nM | 10.2 nM | 93 nM | 10.2 nM | 10.2 nM | 65.8 nM | 24 fold | 2.7 nM | 10 nM
